Data taken from ChEMBL document CHEMBL1144385, “Solid-phase synthesis and antibacterial evaluations of N-demethylvancomycin derivatives” (2005).
≈ marks a conversion by molar mass, not a printed value.

Legend:
Format in all cases: functional
Staphylococcus aureus [1] = experiment: Minimum inhibitory concentration against growth of […] aureus (ATCC 29213)
Staphylococcus aureus [2] = experiment: Minimum inhibitory concentration against growth of Methicillin resistant […] aureus
Enterococcus faecalis [3] = experiment: Minimum inhibitory concentration against growth of Enterococcus faecalis (ATCC 29212)
Enterococcus faecalis [4] = experiment: Minimum inhibitory concentration against growth of vancomycin-resistant Enterococcus faecalis (ATCC 51299)

SMILES | MIC (Staphylococcus aureus [1]) | MIC (Staphylococcus aureus [2]) | MIC (Enterococcus faecalis [3]) | MIC (Enterococcus faecalis [4])
CN[C@H](CC(C)C)C(=O)N[C@H]1C(=O)N[C@@H](CC(N)=O)C(=O)N[C@H]2C(=O)N[C@H]3C(=O)N[C@H](C(=O)N[C@H](C(=O)NCC(=O)O)c4cc(O)cc(O)c4-c4cc3ccc4O)[C@H](O)c3ccc(c(Cl)c3)Oc3cc2cc(c3O[C@@H]2O[C@@H](CO)[C@@H](O)[C@H](O)[C@@H]2O[C@H]2C[C@](C)(NC(=O)OCC3c4ccccc4-c4ccccc43)[C@H](O)[C@H](C)O2)Oc2ccc(cc2Cl)[C@H]1O | > 10 µg/mL | 5 µg/mL (≈ 2.89 µM) | 10 µg/mL (≈ 5.79 µM) | 5 µg/mL (≈ 2.89 µM)
CCC(CC)N[C@H](CC(C)C)C(=O)N[C@H]1C(=O)N[C@@H](CC(N)=O)C(=O)N[C@H]2C(=O)N[C@H]3C(=O)N[C@H](C(=O)N[C@H](C(=O)NCC(=O)O)c4cc(O)cc(O)c4-c4cc3ccc4O)[C@H](O)c3ccc(c(Cl)c3)Oc3cc2cc(c3O[C@@H]2O[C@@H](CO)[C@@H](O)[C@H](O)[C@@H]2O[C@H]2C[C@](C)(N)[C@H](O)[C@H](C)O2)Oc2ccc(cc2Cl)[C@H]1O | 10 µg/mL (≈ 6.4 µM) | 10 µg/mL (≈ 6.4 µM) | > 10 µg/mL | > 10 µg/mL
CCCN(CCC)[C@H](CC(C)C)C(=O)N[C@H]1C(=O)N[C@@H](CC(N)=O)C(=O)N[C@H]2C(=O)N[C@H]3C(=O)N[C@H](C(=O)N[C@H](C(=O)NCC(=O)O)c4cc(O)cc(O)c4-c4cc3ccc4O)[C@H](O)c3ccc(c(Cl)c3)Oc3cc2cc(c3O[C@@H]2O[C@@H](CO)[C@@H](O)[C@H](O)[C@@H]2O[C@H]2C[C@](C)(Nc3ccc(OC)cc3)[C@H](O)[C@H](C)O2)Oc2ccc(cc2Cl)[C@H]1O | > 10 µg/mL | 10 µg/mL (≈ 5.94 µM) | > 10 µg/mL | > 10 µg/mL
CCC(CC)N[C@H](CC(C)C)C(=O)N[C@H]1C(=O)N[C@@H](CC(N)=O)C(=O)N[C@H]2C(=O)N[C@H]3C(=O)N[C@H](C(=O)N[C@H](C(=O)NCC(=O)O)c4cc(O)cc(O)c4-c4cc3ccc4O)[C@H](O)c3ccc(c(Cl)c3)Oc3cc2cc(c3O[C@@H]2O[C@@H](CO)[C@@H](O)[C@H](O)[C@@H]2O[C@H]2C[C@](C)(Nc3ccc(OC)cc3)[C@H](O)[C@H](C)O2)Oc2ccc(cc2Cl)[C@H]1O | > 10 µg/mL | > 10 µg/mL | > 10 µg/mL | > 10 µg/mL
C/C=C/CN(C/C=C/C)[C@H](CC(C)C)C(=O)N[C@H]1C(=O)N[C@@H](CC(N)=O)C(=O)N[C@H]2C(=O)N[C@H]3C(=O)N[C@H](C(=O)N[C@H](C(=O)NCC(=O)O)c4cc(O)cc(O)c4-c4cc3ccc4O)[C@H](O)c3ccc(c(Cl)c3)Oc3cc2cc(c3O[C@@H]2O[C@@H](CO)[C@@H](O)[C@H](O)[C@@H]2O[C@H]2C[C@](C)(Nc3ccc(OC)cc3)[C@H](O)[C@H](C)O2)Oc2ccc(cc2Cl)[C@H]1O | 10 µg/mL (≈ 5.86 µM) | > 10 µg/mL | > 10 µg/mL | > 10 µg/mL
C/C=C/CN[C@H](CC(C)C)C(=O)N[C@H]1C(=O)N[C@@H](CC(N)=O)C(=O)N[C@H]2C(=O)N[C@H]3C(=O)N[C@H](C(=O)N[C@H](C(=O)NCC(=O)O)c4cc(O)cc(O)c4-c4cc3ccc4O)[C@H](O)c3ccc(c(Cl)c3)Oc3cc2cc(c3O[C@@H]2O[C@@H](CO)[C@@H](O)[C@H](O)[C@@H]2O[C@H]2C[C@](C)(Nc3ccc(OC)cc3)[C@H](O)[C@H](C)O2)Oc2ccc(cc2Cl)[C@H]1O | 10 µg/mL (≈ 6.05 µM) | 10 µg/mL (≈ 6.05 µM) | > 10 µg/mL | > 10 µg/mL
CCC(CC)N[C@H](CC(C)C)C(=O)N[C@H]1C(=O)N[C@@H](CC(N)=O)C(=O)N[C@H]2C(=O)N[C@H]3C(=O)N[C@H](C(=O)N[C@H](C(=O)NCC(=O)O)c4cc(O)cc(O)c4-c4cc3ccc4O)[C@H](O)c3ccc(c(Cl)c3)Oc3cc2cc(c3O[C@@H]2O[C@@H](CO)[C@@H](O)[C@H](O)[C@@H]2O[C@H]2C[C@](C)(Nc3ccc(Cl)cc3)[C@H](O)[C@H](C)O2)Oc2ccc(cc2Cl)[C@H]1O | > 10 µg/mL | > 10 µg/mL | > 10 µg/mL | > 10 µg/mL
CCCN[C@H](CC(C)C)C(=O)N[C@H]1C(=O)N[C@@H](CC(N)=O)C(=O)N[C@H]2C(=O)N[C@H]3C(=O)N[C@H](C(=O)N[C@H](C(=O)NCC(=O)O)c4cc(O)cc(O)c4-c4cc3ccc4O)[C@H](O)c3ccc(c(Cl)c3)Oc3cc2cc(c3O[C@@H]2O[C@@H](CO)[C@@H](O)[C@H](O)[C@@H]2O[C@H]2C[C@](C)(Nc3ccc(Cl)cc3)[C@H](O)[C@H](C)O2)Oc2ccc(cc2Cl)[C@H]1O | 10 µg/mL (≈ 6.08 µM) | 10 µg/mL (≈ 6.08 µM) | > 10 µg/mL | > 10 µg/mL
CC(C)C[C@H](C(=O)N[C@H]1C(=O)N[C@@H](CC(N)=O)C(=O)N[C@H]2C(=O)N[C@H]3C(=O)N[C@H](C(=O)N[C@H](C(=O)NCC(=O)O)c4cc(O)cc(O)c4-c4cc3ccc4O)[C@H](O)c3ccc(c(Cl)c3)Oc3cc2cc(c3O[C@@H]2O[C@@H](CO)[C@@H](O)[C@H](O)[C@@H]2O[C@H]2C[C@](C)(Nc3cccnc3)[C@H](O)[C@H](C)O2)Oc2ccc(cc2Cl)[C@H]1O)N(CCc1ccccc1)CCc1ccccc1 | > 10 µg/mL | > 10 µg/mL | > 10 µg/mL | > 10 µg/mL
CCC(CC)N[C@H](CC(C)C)C(=O)N[C@H]1C(=O)N[C@@H](CC(N)=O)C(=O)N[C@H]2C(=O)N[C@H]3C(=O)N[C@H](C(=O)N[C@H](C(=O)NCC(=O)O)c4cc(O)cc(O)c4-c4cc3ccc4O)[C@H](O)c3ccc(c(Cl)c3)Oc3cc2cc(c3O[C@@H]2O[C@@H](CO)[C@@H](O)[C@H](O)[C@@H]2O[C@H]2C[C@](C)(Nc3cccnc3)[C@H](O)[C@H](C)O2)Oc2ccc(cc2Cl)[C@H]1O | > 10 µg/mL | > 10 µg/mL | > 10 µg/mL | > 10 µg/mL
CC(C)C[C@H](C(=O)N[C@H]1C(=O)N[C@@H](CC(N)=O)C(=O)N[C@H]2C(=O)N[C@H]3C(=O)N[C@H](C(=O)N[C@H](C(=O)NCC(=O)O)c4cc(O)cc(O)c4-c4cc3ccc4O)[C@H](O)c3ccc(c(Cl)c3)Oc3cc2cc(c3O[C@@H]2O[C@@H](CO)[C@@H](O)[C@H](O)[C@@H]2O[C@H]2C[C@](C)(NC(=O)OCC3c4ccccc4-c4ccccc43)[C@H](O)[C@H](C)O2)Oc2ccc(cc2Cl)[C@H]1O)N(C)C(=O)OCC1c2ccccc2-c2ccccc21 | > 10 µg/mL | 5 µg/mL (≈ 2.56 µM) | 10 µg/mL (≈ 5.13 µM) | 5 µg/mL (≈ 2.56 µM)
CCC(CC)N[C@H](CC(C)C)C(=O)N[C@H]1C(=O)N[C@@H](CC(N)=O)C(=O)N[C@H]2C(=O)N[C@H]3C(=O)N[C@H](C(=O)N[C@H](C(=O)NCC(=O)O)c4cc(O)cc(O)c4-c4cc3ccc4O)[C@H](O)c3ccc(c(Cl)c3)Oc3cc2cc(c3O[C@@H]2O[C@@H](CO)[C@@H](O)[C@H](O)[C@@H]2O[C@H]2C[C@](C)(Nc3ccc(F)cc3)[C@H](O)[C@H](C)O2)Oc2ccc(cc2Cl)[C@H]1O | > 10 µg/mL | > 10 µg/mL | > 10 µg/mL | > 10 µg/mL
CC(C)C[C@@H](N)C(=O)N[C@H]1C(=O)N[C@@H](CC(N)=O)C(=O)N[C@H]2C(=O)N[C@H]3C(=O)N[C@H](C(=O)N[C@H](C(=O)NCC(=O)O)c4cc(O)cc(O)c4-c4cc3ccc4O)[C@H](O)c3ccc(c(Cl)c3)Oc3cc2cc(c3O[C@@H]2O[C@@H](CO)[C@@H](O)[C@H](O)[C@@H]2O[C@H]2C[C@](C)(Nc3ccc(F)cc3)[C@H](O)[C@H](C)O2)Oc2ccc(cc2Cl)[C@H]1O | 2.5 µg/mL (≈ 1.58 µM) | 2.5 µg/mL (≈ 1.58 µM) | 2.5 µg/mL (≈ 1.58 µM) | > 10 µg/mL
CCCN(CCC)[C@H](CC(C)C)C(=O)N[C@H]1C(=O)N[C@@H](CC(N)=O)C(=O)N[C@H]2C(=O)N[C@H]3C(=O)N[C@H](C(=O)N[C@H](C(=O)NCC(=O)O)c4cc(O)cc(O)c4-c4cc3ccc4O)[C@H](O)c3ccc(c(Cl)c3)Oc3cc2cc(c3O[C@@H]2O[C@@H](CO)[C@@H](O)[C@H](O)[C@@H]2O[C@H]2C[C@](C)(Nc3ccc(F)cc3)[C@H](O)[C@H](C)O2)Oc2ccc(cc2Cl)[C@H]1O | > 10 µg/mL | > 10 µg/mL | > 10 µg/mL | > 10 µg/mL
CC(C)C[C@@H](Nc1ccc(F)cc1)C(=O)N[C@H]1C(=O)N[C@@H](CC(N)=O)C(=O)N[C@H]2C(=O)N[C@H]3C(=O)N[C@H](C(=O)N[C@H](C(=O)NCC(=O)O)c4cc(O)cc(O)c4-c4cc3ccc4O)[C@H](O)c3ccc(c(Cl)c3)Oc3cc2cc(c3O[C@@H]2O[C@@H](CO)[C@@H](O)[C@H](O)[C@@H]2O[C@H]2C[C@](C)(Nc3ccc(F)cc3)[C@H](O)[C@H](C)O2)Oc2ccc(cc2Cl)[C@H]1O | > 10 µg/mL | > 10 µg/mL | > 10 µg/mL | > 10 µg/mL
CC(C)C[C@@H](NC(=O)OCC1c2ccccc2-c2ccccc21)C(=O)N[C@H]1C(=O)N[C@@H](CC(N)=O)C(=O)N[C@H]2C(=O)N[C@H]3C(=O)N[C@H](C(=O)N[C@H](C(=O)NCC(=O)O)c4cc(O)cc(O)c4-c4cc3ccc4O)[C@H](O)c3ccc(c(Cl)c3)Oc3cc2cc(c3O[C@@H]2O[C@@H](CO)[C@@H](O)[C@H](O)[C@@H]2O[C@H]2C[C@](C)(N)[C@H](O)[C@H](C)O2)Oc2ccc(cc2Cl)[C@H]1O | 1.25 µg/mL (≈ 0.729 µM) | 5 µg/mL (≈ 2.92 µM) | 5 µg/mL (≈ 2.92 µM) | > 10 µg/mL
CC(C)C[C@H](C(=O)N[C@H]1C(=O)N[C@@H](CC(N)=O)C(=O)N[C@H]2C(=O)N[C@H]3C(=O)N[C@H](C(=O)N[C@H](C(=O)NCC(=O)O)c4cc(O)cc(O)c4-c4cc3ccc4O)[C@H](O)c3ccc(c(Cl)c3)Oc3cc2cc(c3O[C@@H]2O[C@@H](CO)[C@@H](O)[C@H](O)[C@@H]2O[C@H]2C[C@](C)(N)[C@H](O)[C@H](C)O2)Oc2ccc(cc2Cl)[C@H]1O)N(C)C(=O)OCC1c2ccccc2-c2ccccc21 | 10 µg/mL (≈ 5.79 µM) | 10 µg/mL (≈ 5.79 µM) | 10 µg/mL (≈ 5.79 µM) | > 10 µg/mL
